Measured values reported in PubChem BioAssay (NCI).
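The compound was tested at five concentrations on cells cultured in 96-well plates, with a 48-hour exposure period. At the TGI there is no net growth.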

Tests used:
Experiment in all cases: NCI tumour cell line growth inhibition, 48 h
HCT-116 colon = tested on: HCT-116 colon
HOP-62 NSCLC = tested on: HOP-62 NSCLC
OVCAR-4 ovarian = tested on: OVCAR-4 ovarian
EKVX NSCLC = tested on: EKVX NSCLC
SF-295 CNS = tested on: SF-295 CNS
MCF7 breast = tested on: MCF7 breast
MDA-MB-231 breast = tested on: MDA-MB-231 breast
TK-10 renal = tested on: TK-10 renal
OVCAR-8 ovarian = tested on: OVCAR-8 ovarian
K-562 leukemia = tested on: K-562 leukemia
SK-MEL-28 melanoma = tested on: SK-MEL-28 melanoma
SF-539 CNS = tested on: SF-539 CNS
OVCAR-5 ovarian = tested on: OVCAR-5 ovarian
LOX IMVI melanoma = tested on: LOX IMVI melanoma
786-0 renal = tested on: 786-0 renal
SF-268 CNS = tested on: SF-268 CNS
UACC-257 melanoma = tested on: UACC-257 melanoma
COLO 205 colon = tested on: COLO 205 colon
U251 CNS = tested on: U251 CNS
HCT-15 colon = tested on: HCT-15 colon
HCC-2998 colon = tested on: HCC-2998 colon
SN12C renal = tested on: SN12C renal
MDA-N = tested on: MDA-N
UO-31 renal = tested on: UO-31 renal
KM12 colon = tested on: KM12 colon
NCI/ADR-RES ovarian = tested on: NCI/ADR-RES ovarian
OVCAR-3 ovarian = tested on: OVCAR-3 ovarian
SR leukemia = tested on: SR leukemia
T-47D breast = tested on: T-47D breast
HL-60(TB) leukemia = tested on: HL-60(TB) leukemia
NCI-H460 lung = tested on: NCI-H460 lung
PC-3 prostate = tested on: PC-3 prostate
IGROV1 ovarian = tested on: IGROV1 ovarian
SK-OV-3 ovarian = tested on: SK-OV-3 ovarian
SW-620 colon = tested on: SW-620 colon
SNB-75 CNS = tested on: SNB-75 CNS
SNB-19 CNS = tested on: SNB-19 CNS
MDA-MB-435 = tested on: MDA-MB-435
NCI-H522 lung = tested on: NCI-H522 lung
UACC-62 melanoma = tested on: UACC-62 melanoma
A549 NSCLC = tested on: A549 NSCLC
BT-549 breast = tested on: BT-549 breast
HT29 colon = tested on: HT29 colon
MOLT-4 leukemia = tested on: MOLT-4 leukemia
CCRF-CEM leukemia = tested on: CCRF-CEM leukemia
HOP-92 NSCLC = tested on: HOP-92 NSCLC
DU-145 prostate = tested on: DU-145 prostate
M14 melanoma = tested on: M14 melanoma
SK-MEL-5 melanoma = tested on: SK-MEL-5 melanoma
NCI-H23 lung = tested on: NCI-H23 lung
MALME-3M melanoma = tested on: MALME-3M melanoma
RPMI-8226 leukemia = tested on: RPMI-8226 leukemia
ACHN renal = tested on: ACHN renal
HS 578T breast = tested on: HS 578T breast
CAKI-1 renal = tested on: CAKI-1 renal
A498 renal = tested on: A498 renal
NCI-H226 lung = tested on: NCI-H226 lung
RXF 393 renal = tested on: RXF 393 renal
SK-MEL-2 melanoma = tested on: SK-MEL-2 melanoma

## Cc1cccc2c1Oc1cc(Cl)ccc1C2NC(=O)CCN1CCOCC1 (configuration not stated)
HCT-116 colon
  TGI: > 100 µM
HOP-62 NSCLC
  TGI: > 100 µM
OVCAR-4 ovarian
  TGI: > 100 µM
EKVX NSCLC
  TGI: > 100 µM
SF-295 CNS
  TGI: > 100 µM
MCF7 breast
  TGI: > 100 µM
MDA-MB-231 breast
  TGI: > 100 µM
TK-10 renal
  TGI: > 100 µM
OVCAR-8 ovarian
  TGI: > 100 µM
K-562 leukemia
  TGI: > 100 µM
SK-MEL-28 melanoma
  TGI: > 100 µM
SF-539 CNS
  TGI: > 100 µM
OVCAR-5 ovarian
  TGI: > 100 µM
LOX IMVI melanoma
  TGI: > 100 µM
786-0 renal
  TGI: > 100 µM
SF-268 CNS
  TGI: > 100 µM
UACC-257 melanoma
  TGI: > 100 µM
COLO 205 colon
  TGI: > 100 µM
U251 CNS
  TGI: > 100 µM
HCT-15 colon
  TGI: > 100 µM
HCC-2998 colon
  TGI: > 100 µM
SN12C renal
  TGI: > 100 µM
MDA-N
  TGI: > 100 µM
UO-31 renal
  TGI: > 100 µM
KM12 colon
  TGI: > 100 µM
NCI/ADR-RES ovarian
  TGI: > 100 µM
OVCAR-3 ovarian
  TGI: > 100 µM
SR leukemia
  TGI: > 100 µM
T-47D breast
  TGI: > 100 µM
HL-60(TB) leukemia
  TGI: > 100 µM
NCI-H460 lung
  TGI: > 100 µM
PC-3 prostate
  TGI: > 100 µM
IGROV1 ovarian
  TGI: > 100 µM
SK-OV-3 ovarian
  TGI: > 100 µM
SW-620 colon
  TGI: > 100 µM
SNB-75 CNS
  TGI: > 100 µM
SNB-19 CNS
  TGI: > 100 µM
MDA-MB-435
  TGI: > 100 µM
NCI-H522 lung
  TGI: > 100 µM
UACC-62 melanoma
  TGI: > 100 µM
A549 NSCLC
  TGI: > 100 µM
BT-549 breast
  TGI: > 100 µM
HT29 colon
  TGI: > 100 µM
MOLT-4 leukemia
  TGI: > 100 µM
CCRF-CEM leukemia
  TGI: > 100 µM
HOP-92 NSCLC
  TGI: 95.2 µM
DU-145 prostate
  TGI: > 100 µM
M14 melanoma
  TGI: > 100 µM
SK-MEL-5 melanoma
  TGI: > 100 µM
NCI-H23 lung
  TGI: > 100 µM

## CC1(C#N)CC(C)(C)C(/C=C2/CC(C)(C)C(/C=C3/OC(=N)CC3(C)C)=N2)=N1 (configuration not stated)
HCT-116 colon
  TGI: > 100 µM
HOP-62 NSCLC
  TGI: 56.6 µM
OVCAR-4 ovarian
  TGI: 43.7 µM
MALME-3M melanoma
  TGI: 20 µM
RPMI-8226 leukemia
  TGI: 64 µM
ACHN renal
  TGI: 58.9 µM
EKVX NSCLC
  TGI: 51.6 µM
HS 578T breast
  TGI: 58.9 µM
SF-295 CNS
  TGI: 60.9 µM
MCF7 breast
  TGI: 26.3 µM
MDA-MB-231 breast
  TGI: > 100 µM
TK-10 renal
  TGI: > 100 µM
OVCAR-8 ovarian
  TGI: 74 µM
K-562 leukemia
  TGI: 78.1 µM
SK-MEL-28 melanoma
  TGI: > 100 µM
SF-539 CNS
  TGI: > 100 µM
OVCAR-5 ovarian
  TGI: > 100 µM
LOX IMVI melanoma
  TGI: > 100 µM
786-0 renal
  TGI: 62.6 µM
SF-268 CNS
  TGI: > 100 µM
CAKI-1 renal
  TGI: > 100 µM
UACC-257 melanoma
  TGI: 48.7 µM
COLO 205 colon
  TGI: 34.4 µM
U251 CNS
  TGI: > 100 µM
HCT-15 colon
  TGI: 44.1 µM
HCC-2998 colon
  TGI: 93.3 µM
SN12C renal
  TGI: 95.9 µM
MDA-N
  TGI: 92.1 µM
A498 renal
  TGI: 37.8 µM
KM12 colon
  TGI: 56.2 µM
NCI/ADR-RES ovarian
  TGI: 54 µM
OVCAR-3 ovarian
  TGI: 45.8 µM
SR leukemia
  TGI: > 100 µM
T-47D breast
  TGI: 61.8 µM
HL-60(TB) leukemia
  TGI: 78.1 µM
NCI-H460 lung
  TGI: 39.9 µM
PC-3 prostate
  TGI: > 100 µM
IGROV1 ovarian
  TGI: 46.3 µM
NCI-H226 lung
  TGI: > 100 µM
SK-OV-3 ovarian
  TGI: 61 µM
SW-620 colon
  TGI: > 100 µM
SNB-75 CNS
  TGI: > 100 µM
SNB-19 CNS
  TGI: > 100 µM
MDA-MB-435
  TGI: 63.9 µM
NCI-H522 lung
  TGI: 34 µM
UACC-62 melanoma
  TGI: 66 µM
A549 NSCLC
  TGI: > 100 µM
HT29 colon
  TGI: > 100 µM
MOLT-4 leukemia
  TGI: 89.7 µM
CCRF-CEM leukemia
  TGI: > 100 µM
HOP-92 NSCLC
  TGI: 39.9 µM
RXF 393 renal
  TGI: 44.5 µM
DU-145 prostate
  TGI: > 100 µM
M14 melanoma
  TGI: 85.8 µM
SK-MEL-5 melanoma
  TGI: 32.4 µM
SK-MEL-2 melanoma
  TGI: > 100 µM
NCI-H23 lung
  TGI: 60.6 µM
